Data: patent US20240247048A1 (EMORY UNIVERSITY, priority 2021, published 2024)

How the values were obtained:
PDAC patient T cells = assay: ex vivo 9-day expansion of PDAC patient peripheral blood T cells; type: cell-based, human
Experimental: (FIG. 17A) Representative western blot and (FIG. 17B) quantified expression levels of VPAC1 and VPAC2; and (FIG. 17C) PD-1 and CTLA-4 in lysates of healthy human T cells expanded with plate bound human anti-CD3 antibodies for 0, 3, 6, 12, 24, 48 and 72 hours. Lower molecular weight band of 25kD shown for VPAC2-specific expression as confirmed from our VPAC2 KO model. Percentage of (FIG. 17D) CD69 expression at 24 h post activation (FIG. 17E) phosphorylation of CREB (phospho-CREB) downstream of VPAC1/2 receptor at 6 h and in CD4+ and CD8+ T cells normalized to levels in control with no peptide. PDAC patient peripheral blood T cells were expanded for 9 days with plate bound human anti-CD3 antibodies+/−ANT008 and the (FIG. 17F) percentage of Tregs was quantified using the (FIG. 17G) gating strategy shown. […] Statistical differences in FIGS. 17D and 17E were calculated via repeated measures ANOVA followed by Dunnett's post-test where each sample in the treatment group was compared to the matched sample in the control group (scrambled treated). Statistical differences in FIGS. 17F, 17H, and 17I were calculated via paired student T-test. […]
Human T cell activation and expansion. […] Cells were counted using Trypan blue dye and phenotyped via flow cytometry on day 9. […]

[1] = test system: wild type and VPAC2 KO Panc02 cells; assay: MTT viability of wild type and VPAC2 KO Panc02 cells; type: cell-based, mouse; conditions: 3 uM for 72 hours; FIG. 24f
Experimental: (FIG. 24A) Percentage viability of murine (MT5, KPC.Luc, Panc02) and human (Capan02, BxPC3) PDAC cell lines cultured in the presence of different concentrations ranging from 0-5 μM of ANT008 for 72 hours is plotted. Confirmation of CRISPR-Cas9 KO of VIPR2 encoding VPAC2 receptor via (FIG. 24B) western blot; (FIG. 24C) RT-PCR using primers targeting exon 9-12 downstream of targeted site and (FIG. 24D) Sanger Sequencing showing the validation of in-del mutation in exon 2. In vitro MTT assay showing (FIG. 24E) Proliferation of WT and KO cells over 72 hours; (FIG. 24F) Percent viability of wild type (WT) and VPAC2 KO (KO) Panc02 cells treated with ANT008 and ANT308 at 3 μM for 72 hours. (FIG. 24G) Tumor growth curve of WT versus KO Panc02 cells in C57BL/6 mice following subcutaneous tumor implantation. Values represent median tumor volume±95% confidence interval. (FIG. 24H) Kaplan-Meier survival plots corresponding to results in FIG. 24G. Median survival time for WT is 21 days and 28 days for VPAC2 KO. Error bars represent mean and standard deviation. *p<0.05, **p<0.01.
Cell viability assay. […] Cell viability was assessed using cell proliferation kit I from Roche (Basel, Switzerland), following the manufacturer's instructions. […] This was followed by incubation with solubilization buffer overnight and reading the absorbance at 570 nm. […]

Row | Sequence | T cells with an exhausted phenotype (co-expressing PD1 and Tim-3 or Lag-3) (PDAC patient T cells; CD4+ and CD8+ subsets, 9 days, FIG. 17h, 17i) | proportion of human Tregs (CD4+ CD25+ FoxP3+) (PDAC patient T cells; after 9 days of T cell expansion, FIG. 17f) | in vitro growth of VPAC2 knockout or wild-type Panc02 cells [1]
1 | KPRRPYTDNYTRLRKQMAVKKYLNLILN [ANT008] | significantly decreased | significantly decreased | –
2 | KPRRPYTSDYTRLRKQMAVKKYLNLILN [ANT308] | – | – | did not inhibit
